In patent publication US11951131B2, “Anti-SLAMF7 chimeric antigen receptors” (The United States of America, as represented by the …, priority 2018, dated 2024):
“Also recorded” adds a separate entry of the source.

Legend:
SLAMF7^+ MM.1S cells = test: Cytotoxicity assay (4 hours, relative to CCRF-CEM cells); type: cell-based, human; details: MM.1S relative to control CCRF-CEM cells (FIG. 8A)
Protocol: Cytotoxicity assays were conducted as previously described (see Kochenderfer et al., J. Immunother., 32(7): 689-702 (2009)). Cytotoxicity was measured by comparing survival of SLAMF7^+ target cells relative to the survival of negative-control CCRF-CEM cells. Both of these cell types were combined in the same tubes with CAR-transduced T cells. CCRF-CEM negative control cells were labeled with the fluorescent dye 5-(and -6)-(((4-chloromethyl)benzoyl)amino) tetramethylrhodamine (CMTMR) (Invitrogen), and SLAMF7^+ target cells were labeled with CFSE. Cocultures were set up in sterile 5 mL test tubes (BD Biosciences) in duplicate at multiple T cell to target cell ratios. The target cells contained in the tubes were 50,000 SLAMF7^+ target cells along with 50,000 CCRF-CEM negative-control cells. The cultures were incubated for 4 hours at 37° C. Immediately after the incubation, 7AAD (7-amino-actinomycin D) (BD Biosciences) was added, and flow cytometry acquisition was performed. For each T cell plus target-cell culture, the percent survival of SLAMF7^+ target cells was determined by dividing the percent live SLAMF7^+ cells by the percent live CCRF-CEM negative control cells. The corrected percent survival of SLAMF7^+ target cells was calculated by dividing the percent survival of SLAMF7^+ target cells in each T cell plus target cell culture by the ratio of the percent live SLAMF7^+ target cells to percent live CCRF-CEM negative-control cells in tubes containing only SLAMF7^+ target cells and CCRF-CEM cells without effector T cells. This correction was necessary to account for variation in the starting cell numbers and for spontaneous target cell death. Cytotoxicity was calculated as follows: the percent cytotoxicity of […] target cells=100−corrected percent survival of SLAMF7^+ target cells.

SLAMF7-K562 = test: IFN-gamma ELISA, CAR T cells cultured overnight with SLAMF7-K562 target cells; type: cell-based, human
From the text: MM.1S is a SLAMF7^+ multiple myeloma cell line that was obtained from American Type Culture Collection (ATCC). A549 is a BCMA-negative lung cancer cell line (ATCC). TC71 is a BCMA-negative sarcoma cell line. CCRF-CEM, 293T, and A549 are SLAMF7-negative cell lines (ATCC). COL0207, HepG2, U251, Panc10.05, and TC71 are […] that were kind gifts from Dr. Steven Rosenberg, National Cancer Institute. SLAMF7-K562 are K562 cells (ATCC) which were transduced with the gene for full-length SLAMF7. SLAMF7-RPMI are RPMI8226 cells (ATCC) which were transduced with the gene for full-length SLAMF7. NGFR-K562 are K562 cells which were transduced with the gene for low-affinity nerve growth factor (Kochenderfer et al., J. Immunother., 32(7): 689-702 (2009)). All of the human samples mentioned were obtained from patients enrolled in IRB-approved clinical trials at the National Cancer Institute.
One-hundred thousand SLAMF7^+ or SLAMF7-negative target cells were combined with 100,000 CAR-transduced T cells in duplicate wells of a 96 well round bottom plate in 200 µL of AIM V™ medium (Invitrogen) plus 5% human serum. The plates were incubated at 37° C. for 18-20 hours. Following the incubation, ELISAs (enzyme-linked immunosorbent assays) for IFNγ were performed by using standard methods.
The T cells columns indicate whether T cells were transduced with Luc90-CD828Z, Luc63-CD828Z, or were untransduced. The % CAR^+ in Table B-1 was determined by staining the T cells with Protein L. Except for the % CAR^+ column, all values are pg/mL of IFN-gamma. T cells that were either untransduced or transduced with one of the indicated CARs were cultured with target cells overnight and a standard IFN-gamma ELISA was performed on the culture supernatant.
All values are pg/mL of IFN-gamma. T cells that were either untransduced or transduced with one of the indicated CARs were cultured with target cells overnight, and a standard IFN-gamma ELISA was performed on the culture supernatant.

[1] = test system: MM.1S human SLAMF7^+ multiple myeloma solid tumors; test: MM.1S solid tumor model in NSG mice, anti-tumor efficacy; type: in vivo; details: for anti-tumor activity: 2 million CAR^+ T cells per mouse, 5 mice per group (FIG. 17)
Protocol: First, MM.1S human SLAMF7^+ multiple myeloma cell line tumors were established in immunodeficient mice. In this model, the MM.1S cells formed a solid cutaneous mass. Measurable tumors were allowed to develop over 7 days, and then the mice were treated with a single intravenous infusion of MSGV1-IC9-Luc90-CD828Z-transduced human T cells. NSG mice (NOD.Cg-Prkdc^scid Il2rg^tm1Wjl/SzJ) from The Jackson Laboratory, Bar Harbor, Me., were used. Mice received intradermal injections of 4×10^6 MM.1S cells. The cells were suspended in a 1:1 mixture of MATRIGEL™ gelatinous protein mixture (BD Biosciences) and PBS (Phosphate-buffered saline) for injection. Tumors were allowed to grow for 7 days, and then each mouse received a single intravenous infusion of human T cells that were transduced with one of 3 CARs: IC9-Luc90-CD828Z (suicide gene+anti-SLAMF7 CAR), Luc90-CD828Z (anti-SLAMF7 CAR alone), or a negative-control anti-CD19 CAR Hu19-CD828Z. A 4th group was left untreated. All groups included 5 mice. After CAR T-cell infusion, the tumors were measured with calipers every 3 days. The longest length and the length perpendicular to the longest length and the tumor thickness were multiplied together to obtain the tumor volume in mm^3. When the longest length reached 15 mm, mice were sacrificed. Animal studies were approved by the National Cancer Institute Animal Care and Use Committee.
FIGS. 16A-16B show a dose-titration of IC9-Luc90-CD828Z-expressing T cells. In this experiment, immunocompromised NSG mice were injected intradermally with 4×10^6 MM.1S cells to form a solid mass. Mice were then treated with a single infusion of 0.5×10^6, 2×10^6, or 8×10^6, IC9-Luc90-CD828Z-expressing T cells. […] The tumor volume curves end when the first mouse of a group was sacrificed.
MM.'S tumors were established in NSG mice as described in Example 9. FIGS. 17A-17B show results in which mice bearing MM.1S tumors were treated with T cells expressing one of 3 different CARs: IC9-Luc90-CD828Z (suicide gene+anti-SLAMF7 CAR), Luc90-CD828Z (anti-SLAMF7 CAR alone), or a negative-control anti-CD19 CAR Hu19-CD828Z. A 4th group was left untreated in both experiments. All groups included 5 mice. The CARP T cell dose was 2 million CARP T cells per mouse. There were 5 mice in all groups.

[2] = dose of 2 million or more T cells per mouse

| Substance | killing of SLAMF7^+ target cells (SLAMF7^+ MM.1S cells) | IFN-gamma, SLAMF7-K562 (SLAMF7-K562; Table E, overnight culture) [pg/mL] | dose dependence of activity against established tumors ([1]; 0.5×10^6 to 8×10^6 T cells) | anti-tumor activity [1] | survival [1, 2] | tumor eradication [1, 2] | effect on tumors ([1]; single infusion of 0.5×10^6 CAR^+ T cells (FIG. 16)) | effect on tumors ([1]; single infusion of 2×10^6 CAR^+ T cells (FIG. 16)) | effect on tumors ([1]; single infusion of 8×10^6 CAR^+ T cells (FIG. 16)) | IFN-gamma, target cells SLAMF7-K562 (SLAMF7-K562; Table B-1, overnight culture) [pg/mL] | IFN-gamma, target cells SLAMF7-K562 (SLAMF7-K562; Table B-2, overnight culture) [pg/mL] | IFN-gamma, target cells SLAMF7-K562 (SLAMF7-K562; Table C) [pg/mL] |
| --- | --- | --- | --- | --- | --- | --- | --- | --- | --- | --- | --- | --- |
| IC9-Luc90-CD828Z: CAR plus suicide gene construct (SEQ ID NO: 31): IC9 suicide gene 5′ to the CAR, T2A, Luc90-CD828Z | killed SLAMF7^+ target cells; also recorded: specifically killed the SLAMF7^+ MM.1S cells | 2225 | dose-dependent activity | powerful anti-tumor activity | mice survive long-term | tumors can be eradicated | only slightly slowed tumor growth relative to untreated mice but did not eliminate any tumors | eliminated all tumors | eliminated all tumors | – | – | – |
| Luc90-CD828Z: anti-SLAMF7 CAR (SEQ ID NO: 27): murine Luc90 scFv, human CD8a hinge and TM, CD28 and CD3ζ domains; tested as transduced T cells | killed SLAMF7^+ target cells | – | – | powerful anti-tumor activity | – | – | – | – | – | 16579 | 20055 | 15759 |
